Read-outs that look alike come from different tables or passages of the source.
Key:
PARP domain of TNKS2 = molecular target: T1, PARP domain of TNKS2 (Homo sapiens, UniProt Q9H2K2); assay: In vitro PARP assay, IC50 on TNKS2 (this study); format: biochemical; conditions: values from this study
T1 construct: His6; made in house; host or cells: Escherichia coli BL-21(DE3) RIPL
Method: Purified PARP domain of TNKS2 and either BSA or recombinant full-length 3BP2 protein were incubated in PARP reaction buffer (50 mM Tris pH 8.0, 4 mM MgCl2, 0.2 mM dithiothreitol) containing 0.5 mM NAD^+ as an exogenous source of ADP-ribose for 30 min at 25°C with or without PARP inhibitors. Reactions were stopped by adding sample buffer to the tubes. Samples were boiled and separated on a 4–20% SDS–PAGE gel. The gel was stained with Coomassie Blue, dried on a gel dryer and used for autoradiography analysis (Fig. 2 ▶).

PARP1 = system: PARP1; set-up: method as in not given; conditions: cited from earlier work
PARP2 = system: PARP2; set-up: method as in not given; conditions: IC50 values available from the literature; ref not given; cited from earlier work
TNKS1 = system: TNKS1; set-up: method as in not given; conditions: IC50 values available from the literature; ref not given; cited from earlier work
TNKS2 = system: TNKS2; set-up: method as in not given; conditions: IC50 values available from the literature; ref not given; cited from earlier work
[1] = IC50 values available from the literature, ref not given

T1 sequence (Q9H2K2 959-1164): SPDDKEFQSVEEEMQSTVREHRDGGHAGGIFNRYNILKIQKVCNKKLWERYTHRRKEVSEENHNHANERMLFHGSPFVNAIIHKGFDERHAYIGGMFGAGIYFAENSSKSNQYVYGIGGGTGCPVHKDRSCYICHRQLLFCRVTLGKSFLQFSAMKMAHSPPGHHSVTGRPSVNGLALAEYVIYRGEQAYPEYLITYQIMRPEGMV

Compound | IC50 (PARP domain of TNKS2) [µM] | IC50 (PARP1; [1]) [nM] | IC50 (PARP1) [nM] | IC50 (PARP2) [nM] | further results
Oc1cccc2c(O)nccc12 [1,5-IQD, 1,5-Isoquinolinediol] | 1.5 | – | – | – | –
NC(=O)c1cccc2ncc(-c3ccc(Cl)cc3)nc12 [3,4-CPQ-5C, 3-(4-Chlorophenyl)-quinoxaline-5-carboxamide] | 3.6 | – | – | – | –
NC(=O)c1cccc(N)c1 [3-AB, 3-Amino-benzamide] | > 30 | 33000 | – | – | –
Nc1cccc2c(=O)[nH]ccc12 [5-AIQ, 5-Aminoisoquinolinone] | 10 | – | 250 | – | –
O=C1NCCc2c(OCCCCN3CCCCC3)cccc21 [DPQ] | 2.8 | – | 23 | – | IC50 (TNKS1): 0.033 µM
Nc1ccc2oc(=O)ccc2c1I [INH2BP, 5-Iodo-6-amino-1,2-benzopyrone] | – | 5070 | – | 4750 | –
Cc1nc2c(O)cccc2c(=O)[nH]1 [NU-1025, 8-Hydroxy-2-methyl-3-hydro-quinazolin-4-one] | – | 400 | – | – | –

More lines, main results first:

IC50 (PARP domain of TNKS2) [µM] | Compound | IC50 (PARP1; [1]) [nM] | IC50 (PARP1) [nM] | IC50 (PARP2) [nM] | further results
0.416 | NC(=O)c1ccc(I)c([N+](=O)[O-])c1 [BSI-201, 4-Iodo-3-nitrobenzamide] | – | – | – | –
3 | Cc1nc2c(c(=O)[nH]1)CSCC2 [DR-2313, 2-Methyl-3,5,7,8-tetrahydro-4H-thiopyrano[4,3-d]pyrimidin-4-one] | – | – | 240 | –

From article PMC4188013, “Insights into the binding of PARP inhibitors to the catalytic domain of human tankyrase-2” (Acta Crystallographica Section D: Biological Crystallography, 2014)
